Patent publication US20240270762A1, “PENICILLIN-BINDING PROTEIN INHIBITORS” (priority 2021, published 2024)
Converted amounts (≈) assume the structure as drawn. Read-outs that look alike come from different tables or passages of the source.

Experiments:
N. gonorrhoeae CDC-0197 = assay: Liquid broth MIC in Fastidious broth; conditions: Neisseria gonorrhoeae
A. baumannii CDC-0036 = assay: microbe, parasite or virus in culture; type: cell-based; conditions: Acinetobacter baumannii, CDC0036, read-out: MIC, A. baumannii CDC-0036
N. gonorrhoeae WHO G = assay: Liquid broth MIC in Fastidious broth; conditions: Neisseria gonorrhoeae
[1] = target: T1, PBP3 from Acinetobacter baumannii (ATCC 19606) (Acinetobacter baumannii, UniProt A0ABX6CK25); assay: Bocillin-FL fluorescence polarization competition binding, A. baumannii PBP3; conditions: fluorescence polarization competition binding assay using Bocillin-FL; read-out: A. baumannii PBP3 Potency
T1 sequence (A0ABX6CK25 64-610): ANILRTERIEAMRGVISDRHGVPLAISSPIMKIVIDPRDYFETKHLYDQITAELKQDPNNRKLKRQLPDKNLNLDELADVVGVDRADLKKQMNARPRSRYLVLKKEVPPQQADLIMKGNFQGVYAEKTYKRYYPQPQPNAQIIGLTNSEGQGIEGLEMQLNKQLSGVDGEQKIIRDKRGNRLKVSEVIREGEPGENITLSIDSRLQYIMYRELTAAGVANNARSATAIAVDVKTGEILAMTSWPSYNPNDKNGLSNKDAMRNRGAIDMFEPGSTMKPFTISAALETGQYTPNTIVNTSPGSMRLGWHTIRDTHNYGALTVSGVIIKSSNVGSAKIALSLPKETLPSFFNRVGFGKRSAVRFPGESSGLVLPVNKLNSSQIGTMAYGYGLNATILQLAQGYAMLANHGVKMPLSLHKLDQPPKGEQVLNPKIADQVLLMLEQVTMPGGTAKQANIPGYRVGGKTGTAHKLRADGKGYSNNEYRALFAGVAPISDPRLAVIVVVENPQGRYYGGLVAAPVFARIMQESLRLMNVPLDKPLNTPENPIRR
In short: (§1)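 Purified PBP was preincubated with inhibitor (E. coli PBP3 1.5 μM, 30 min; P. aeruginosa PBP3 0.75 μM, A. baumannii PBP3 0.2 μM and PBP1a 1 μM, 15 min), then Bocillin-FL (0.1 μM; 0.05 μM for PBP1a) added and FP read up to 60 min. EC50 = 50% loss of bound probe.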

P. aeruginosa ATCC 27853 = assay: microbe, parasite or virus in culture; type: cell-based; conditions: Pseudomonas aeruginosa, ATCC27853, read-out: Minimum inhibitory concentration, P. aeruginosa ATCC 27853
[2] = target: T2, PBP3 from Pseudomonas aeruginosa (PAO1) (Pseudomonas aeruginosa, UniProt G3XD46); assay: Bocillin-FL fluorescence polarization competition binding, P. aeruginosa PBP3; conditions: Binding affinity to P. aeruginosa PBP3; fluorescence polarization competition binding assay using Bocillin-FL; read-out: P. aeruginosa PBP3 Potency
T2 construct: made in house
T2 sequence (G3XD46 whole entry): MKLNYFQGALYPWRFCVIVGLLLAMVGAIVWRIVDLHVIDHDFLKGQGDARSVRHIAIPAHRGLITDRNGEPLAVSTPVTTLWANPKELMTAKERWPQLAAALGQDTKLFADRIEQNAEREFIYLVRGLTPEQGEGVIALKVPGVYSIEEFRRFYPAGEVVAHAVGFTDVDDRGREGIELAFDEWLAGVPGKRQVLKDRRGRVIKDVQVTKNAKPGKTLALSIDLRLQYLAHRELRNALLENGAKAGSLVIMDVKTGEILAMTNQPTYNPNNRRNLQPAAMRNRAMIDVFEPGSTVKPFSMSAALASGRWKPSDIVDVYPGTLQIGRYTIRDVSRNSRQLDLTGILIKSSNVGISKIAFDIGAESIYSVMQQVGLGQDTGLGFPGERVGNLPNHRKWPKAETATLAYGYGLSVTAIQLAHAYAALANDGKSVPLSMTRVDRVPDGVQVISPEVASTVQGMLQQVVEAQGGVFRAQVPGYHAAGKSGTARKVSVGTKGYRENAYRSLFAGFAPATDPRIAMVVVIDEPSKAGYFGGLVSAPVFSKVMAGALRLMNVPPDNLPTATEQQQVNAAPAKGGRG
In short: as §1

N. gonorrhoeae WHO M = assay: Liquid broth MIC in Fastidious broth; conditions: Neisseria gonorrhoeae
[3] = target: T3, PBP3 from Escherichia coli (K-12) (Escherichia coli, UniProt P0AD68); assay: Bocillin-FL fluorescence polarization competition binding, E. coli PBP3
T3 construct: made in house
T3 sequence (P0AD68 1-577): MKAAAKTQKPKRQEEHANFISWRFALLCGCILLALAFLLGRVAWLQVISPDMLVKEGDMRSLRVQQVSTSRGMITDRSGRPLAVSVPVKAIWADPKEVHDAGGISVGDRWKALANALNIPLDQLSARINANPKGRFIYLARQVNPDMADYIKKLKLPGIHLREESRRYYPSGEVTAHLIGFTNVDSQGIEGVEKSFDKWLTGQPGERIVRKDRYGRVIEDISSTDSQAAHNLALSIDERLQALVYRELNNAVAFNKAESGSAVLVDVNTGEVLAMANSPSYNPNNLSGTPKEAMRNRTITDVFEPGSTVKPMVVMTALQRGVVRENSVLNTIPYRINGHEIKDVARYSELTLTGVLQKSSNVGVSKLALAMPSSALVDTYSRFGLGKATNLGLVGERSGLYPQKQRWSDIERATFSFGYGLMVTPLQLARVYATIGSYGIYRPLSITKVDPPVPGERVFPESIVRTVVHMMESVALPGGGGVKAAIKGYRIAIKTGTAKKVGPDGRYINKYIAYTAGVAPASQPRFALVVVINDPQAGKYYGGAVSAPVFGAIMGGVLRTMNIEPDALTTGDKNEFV
In short: as §1

N. gonorrhoeae MS11 = assay: Liquid broth MIC in Fastidious broth; conditions: Neisseria gonorrhoeae
[4] = CDC0197, read-out: Minimum Inhibitory Concentration, CDC-0197
[5] = read-out: Minimum Inhibitory Concentration, WHO G
[6] = read-out: Minimum Inhibitory Concentration, WHO M
[7] = MS11, read-out: Minimum Inhibitory Concentration, MS11
[8] = CDC0197, read-out: Minimum Inhibitory Concentration (MIC), N. gonorrhoeae CDC-0197
[9] = read-out: Minimum Inhibitory Concentration (MIC), N. gonorrhoeae WHO G
[10] = read-out: Minimum Inhibitory Concentration (MIC), N. gonorrhoeae WHO M
[11] = MS11, read-out: Minimum Inhibitory Concentration (MIC), N. gonorrhoeae MS11

| Compound | MIC (N. gonorrhoeae CDC-0197; [4]) | MIC (A. baumannii CDC-0036) | MIC (N. gonorrhoeae WHO G; [5]) | IC50 [1] | MIC (P. aeruginosa ATCC 27853) | IC50 [2] | MIC (N. gonorrhoeae WHO M; [6]) | EC50 [3] | MIC (N. gonorrhoeae MS11; [7]) | MIC (N. gonorrhoeae CDC-0197; [8]) | MIC (N. gonorrhoeae WHO G; [9]) | MIC (N. gonorrhoeae WHO M; [10]) | MIC (N. gonorrhoeae MS11; [11]) |
| --- | --- | --- | --- | --- | --- | --- | --- | --- | --- | --- | --- | --- | --- |
| O=C(NCCCN1CCN(C(=O)N[C@@H](C(=O)N[C@H]2Cc3ccc(F)c(C(=O)O)c3OB2O)c2cc(F)c(O)c(O)c2Cl)C(=O)C1=O)c1ccnc(F)c1F [Example 300, (R)-3-((R)-2-(2-chloro-5-fluoro-3,4-dihydroxyphenyl)-2-(4-(3-(2,3-difluoroisonicotinamido)propyl)-2,3-dioxopiperazine-1-carboxamido)acetamido)-7-fluoro-2-hydroxy-3,4-dihydro-2H-benzo[e][1,2]oxaborinine-8-carboxylic acid] | > 64 µg/mL | 2 to 4 µg/mL (≈ 2.56 to 5.12 µM) | 16 to 32 µg/mL (≈ 20.5 to 41 µM) | < 10 µM | 2 to 4 µg/mL (≈ 2.56 to 5.12 µM) | < 10 µM | 16 to 32 µg/mL (≈ 20.5 to 41 µM) | < 10 µM | 16 to 32 µg/mL (≈ 20.5 to 41 µM) |  |  |  |  |
| O=C(NCCCN1CCN(C(=O)NC(C(=O)N[C@H]2Cc3ccc(F)c(C(=O)O)c3OB2O)c2cc(F)c(O)c(O)c2Cl)C(=O)C1=O)c1ccc(O)c(F)c1 (stereo partly drawn) [Example 304, (3R)-3-(2-(2-chloro-5-fluoro-3,4-dihydroxyphenyl)-2-(4-(3-(3-fluoro-4-hydroxybenzamido)propyl)-2,3-dioxopiperazine-1-carboxamido)acetamido)-7-fluoro-2-hydroxy-3,4-dihydro-2H-benzo[e][1,2]oxaborinine-8-carboxylic acid] | > 64 µg/mL | 2 to 4 µg/mL (≈ 2.57 to 5.14 µM) | 16 to 32 µg/mL (≈ 20.6 to 41.1 µM) | < 10 µM | 2 to 4 µg/mL (≈ 2.57 to 5.14 µM) | < 10 µM | 16 to 32 µg/mL (≈ 20.6 to 41.1 µM) | < 10 µM | 16 to 32 µg/mL (≈ 20.6 to 41.1 µM) |  |  |  |  |
| O=C(NCCCN1CCN(C(=O)N[C@H](C(=O)N[C@H]2Cc3ccc(F)c(C(=O)O)c3OB2O)c2cc(F)c(O)c(O)c2Cl)C(=O)C1=O)c1ccnc(F)c1F [Example 299, (R)-3-((S)-2-(2-chloro-5-fluoro-3,4-dihydroxyphenyl)-2-(4-(3-(2,3-difluoroisonicotinamido)propyl)-2,3-dioxopiperazine-1-carboxamido)acetamido)-7-fluoro-2-hydroxy-3,4-dihydro-2H-benzo[e][1,2]oxaborinine-8-carboxylic acid] | > 64 µg/mL | 32 to 64 µg/mL (≈ 41 to 82 µM) | > 64 µg/mL | 10 to 50 µM | 8 to 16 µg/mL (≈ 10.2 to 20.5 µM) | 10 to 50 µM | > 64 µg/mL | > 250 µM | > 64 µg/mL |  |  |  |  |
| O=C(NCCCN1CCN(C(=O)N[C@H](C(=O)N[C@H]2Cc3ccc(F)c(C(=O)O)c3OB2O)c2cc(F)c(O)c(O)c2Cl)C1=O)Nc1ccc(O)cc1 [Example 283, (R)-3-((S)-2-(2-chloro-5-fluoro-3,4-dihydroxyphenyl)-2-(3-(3-(3-(4-hydroxyphenyl)ureido)propyl)-2-oxoimidazolidine-1-carboxamido)acetamido)-7-fluoro-2-hydroxy-3,4-dihydro-2H-benzo[e][1,2]oxaborinine-8-carboxylic acid] | > 64 µg/mL | > 128 µg/mL | > 64 µg/mL | 50 to 250 µM | > 128 µg/mL | 50 to 250 µM | > 64 µg/mL | > 250 µM | > 64 µg/mL |  |  |  |  |
| O=C(NCCCS(=O)(=O)N1CCN(C(=O)NC(C(=O)N[C@H]2Cc3ccc(F)c(C(=O)O)c3OB2O)c2cc(F)c(O)c(O)c2Cl)C1=O)Nc1ccncc1 (stereo partly drawn) [Example 291, (3R)-3-(2-(2-chloro-5-fluoro-3,4-dihydroxyphenyl)-2-(2-oxo-3-((3-(3-(pyridin-4-yl)ureido)propyl)sulfonyl)imidazolidine-1-carboxamido)acetamido)-7-fluoro-2-hydroxy-3,4-dihydro-2H-benzo[e][1,2]oxaborinine-8-carboxylic acid] | 16 to 32 µg/mL (≈ 20.1 to 40.2 µM) | 2 to 4 µg/mL (≈ 2.51 to 5.03 µM) | 16 to 32 µg/mL (≈ 20.1 to 40.2 µM) | < 10 µM | 2 to 4 µg/mL (≈ 2.51 to 5.03 µM) | < 10 µM | 16 to 32 µg/mL (≈ 20.1 to 40.2 µM) | < 10 µM | 16 to 32 µg/mL (≈ 20.1 to 40.2 µM) |  |  |  |  |
| O=C(NCCS(=O)(=O)N1CCN(C(=O)N[C@H](C(=O)N[C@H]2Cc3ccc(F)c(C(=O)O)c3OB2O)c2cc(F)c(O)c(O)c2Cl)C1=O)c1ccc(O)cc1 [Example 286, (R)-3-((S)-2-(2-chloro-5-fluoro-3,4-dihydroxyphenyl)-2-(3-((2-(4-hydroxybenzamido)ethyl)sulfonyl)-2-oxoimidazolidine-1-carboxamido)acetamido)-7-fluoro-2-hydroxy-3,4-dihydro-2H-benzo[e][1,2]oxaborinine-8-carboxylic acid] | > 64 µg/mL | > 128 µg/mL | > 64 µg/mL | 50 to 250 µM | > 128 µg/mL | > 250 µM | > 64 µg/mL | > 250 µM | > 64 µg/mL |  |  |  |  |
| O=C(NCCCN1CCN(C(=O)N[C@@H](C(=O)N[C@H]2Cc3ccc(F)c(C(=O)O)c3OB2O)c2cc(F)c(O)c(O)c2Cl)C(=O)C1=O)c1ccncc1O [Example 296, (R)-3-((R)-2-(2-chloro-5-fluoro-3,4-dihydroxyphenyl)-2-(4-(3-(3-hydroxyisonicotinamido)propyl)-2,3-dioxopiperazine-1-carboxamido)acetamido)-7-fluoro-2-hydroxy-3,4-dihydro-2H-benzo[e][1,2]oxaborinine-8-carboxylic acid] | > 64 µg/mL | < 1 µg/mL | 16 to 32 µg/mL (≈ 21 to 42.1 µM) | < 10 µM | < 1 µg/mL | < 10 µM | 16 to 32 µg/mL (≈ 21 to 42.1 µM) | < 10 µM | 16 to 32 µg/mL (≈ 21 to 42.1 µM) |  |  |  |  |
| O=C(O)c1cccc2c1OB(O)[C@@H](NC(=O)C(NC(=O)N1CCN(CC(F)(F)F)C(=O)C1=O)c1ccc(P(=O)(O)O)cc1)C2 (stereo partly drawn) [Example 4, (3R)-3-(2-(2,3-dioxo-4-(2,2,2-trifluoroethyl)piperazine-1-carboxamido)-2-(4-phosphonophenyl)acetamido)-2-hydroxy-3,4-dihydro-2H-benzo[e][1,2]oxaborinine-8-carboxylic acid] |  |  |  |  |  | < 10 µM |  | < 10 µM |  | 1 to 2 µg/mL (≈ 1.56 to 3.11 µM) | < 1 µg/mL | < 1 µg/mL | < 1 µg/mL |
| CCN1CCN(C(=O)NC(C(=O)N[C@H]2Cc3cccc(C(=O)O)c3OB2O)c2ccc(P(=O)(O)O)cc2F)C(=O)C1=O (stereo partly drawn) [Example 1, (3R)-3-(2-(4-ethyl-2,3-dioxopiperazine-1-carboxamido)-2-(2-fluoro-4-phosphonophenyl)acetamido)-2-hydroxy-3,4-dihydro-2H-benzo[e][1,2]oxaborinine-8-carboxylic acid] |  |  |  |  |  | < 10 µM |  | < 10 µM |  | < 1 µg/mL | < 1 µg/mL | < 1 µg/mL | < 1 µg/mL |
| NCCN1CCN(C(=O)NC(C(=O)N[C@H]2Cc3cccc(C(=O)O)c3OB2O)c2ccc(P(=O)(O)O)cc2)C(=O)C1=O (stereo partly drawn) [Example 3, (3R)-3-(2-(4-(2-aminoethyl)-2,3-dioxopiperazine-1-carboxamido)-2-(4-phosphonophenyl)acetamido)-2-hydroxy-3,4-dihydro-2H-benzo[e][1,2]oxaborinine-8-carboxylic acid] |  |  |  |  |  | 10 to 50 µM |  | 10 to 50 µM |  | 1 to 2 µg/mL (≈ 1.66 to 3.32 µM) | < 1 µg/mL | < 1 µg/mL | 1 to 2 µg/mL (≈ 1.66 to 3.32 µM) |
| CCN1CCN(C(=O)NC(C(=O)N[C@H]2Cc3cccc(C(=O)O)c3OB2O)c2cc(P(=O)(O)O)ccc2F)C(=O)C1=O (stereo partly drawn) [Example 2, (3R)-3-(2-(4-ethyl-2,3-dioxopiperazine-1-carboxamido)-2-(2-fluoro-5-phosphonophenyl)acetamido)-2-hydroxy-3,4-dihydro-2H-benzo[e][1,2]oxaborinine-8-carboxylic acid] |  |  |  |  |  | < 10 µM |  | < 10 µM |  | 4 to 8 µg/mL (≈ 6.6 to 13.2 µM) | 1 to 2 µg/mL (≈ 1.65 to 3.3 µM) | 4 to 8 µg/mL (≈ 6.6 to 13.2 µM) | 4 to 8 µg/mL (≈ 6.6 to 13.2 µM) |
| CS(=O)(=O)N1CCN(C(=O)N[C@H](C(=O)N[C@H]2Cc3cccc(C(=O)O)c3OB2O)c2ccc(P(=O)(O)O)cc2)C1=O (single isomer, unassigned) [Example 5] |  |  |  |  |  | 10 to 50 µM |  | 50 to 250 µM |  | < 1 µg/mL | < 1 µg/mL | < 1 µg/mL | < 1 µg/mL |
